Source: ChEMBL document CHEMBL1132675, “New pyrrole derivatives as antimycobacterial agents analogs of BM212” (1999)
≈ marks a conversion by molar mass, not a printed value. Calls of active or inactive are those of the source. No cut-off for these calls is given here.

Key:
[1] = tested on: Candida; assay: Compound was tested for activity against Candida sp; Inactive; assay type: functional, organism-based
[2] = tested on: Candida albicans; assay: Compound was tested for activity against Candida albicans; Inactive; assay type: functional, organism-based
[3] = tested on: Mycobacterium avium; assay: In vitro antibacterial activity against Mycobacterium avium 103317; assay type: functional
[4] = tested on: Mycobacterium gordonae; assay: In vitro antibacterial activity against Mycobacterium gordonae 6427; assay type: functional
[5] = tested on: Mycobacterium marinum; assay: In vitro antibacterial activity against Mycobacterium marinum 6423; assay type: functional
[6] = tested on: Mycobacterium tuberculosis; assay: In vitro antibacterial activity against Mycobacterium tuberculosis 103471; assay type: functional
[7] = tested on: Mycolicibacterium smegmatis; assay: In vitro antibacterial activity against Mycobacterium smegmatis 103599; assay type: functional
[8] = tested on: Vero; assay: In vitro cytotoxicity against vero cells; assay type: functional, Chlorocebus sabaeus
[9] = tested on: Mycobacterium gordonae; assay: In vitro antibacterial activity agains Mycobacterium gordonae 6427; assay type: functional

Row | Compound | MIC [1] | MIC [2] | MIC [3] | MIC [4] | MIC [5] | MIC [6] | MIC [7] | MTD50 [8] | MIC [9]
1 | Cc1c(CN2CCSCC2)cc(-c2ccc(Cl)cc2)n1-c1ccccc1 | inactive | inactive | > 16 µg/mL | > 16 µg/mL | > 16 µg/mL | 2 µg/mL (≈ 5.22 µM) | > 16 µg/mL | 4 µg/mL | 
2 | Cc1c(CN2CCN(C)CC2)cc(-c2ccccc2)n1-c1ccc(Cl)cc1 | inactive | inactive | 16 µg/mL (≈ 42.1 µM) | 8 µg/mL (≈ 21.1 µM) | 1 µg/mL (≈ 2.63 µM) | 4 µg/mL (≈ 10.5 µM) | 8 µg/mL (≈ 21.1 µM) | 4 µg/mL | 
3 | NNC(=O)c1ccncc1 [ISONIAZID] |  |  | 32 µg/mL (≈ 233 µM) | 32 µg/mL (≈ 233 µM) | 16 µg/mL (≈ 117 µM) | 0.25 µg/mL (≈ 1.82 µM) | 64 µg/mL (≈ 467 µM) | 32 µg/mL | 
4 | Cc1c(CN2CCSCC2)cc(-c2ccc(Cl)cc2)n1-c1ccc(Cl)cc1 | inactive | inactive | > 16 µg/mL | > 16 µg/mL | > 16 µg/mL | 4 µg/mL (≈ 9.58 µM) | > 16 µg/mL | 32 µg/mL | 
5 | Cc1c(CN2CCN(C)CC2)cc(-c2ccc(Cl)cc2)n1-c1ccccc1 | inactive | inactive | 16 µg/mL (≈ 42.1 µM) | 16 µg/mL (≈ 42.1 µM) | 16 µg/mL (≈ 42.1 µM) | 4 µg/mL (≈ 10.5 µM) | 8 µg/mL (≈ 21.1 µM) | 4 µg/mL | 
6 | CN[C@@H]1[C@H](O[C@H]2[C@H](O[C@H]3[C@H](O)[C@@H](O)[C@H](N=C(N)N)[C@@H](O)[C@@H]3N=C(N)N)O[C@@H](C)[C@]2(O)C=O)O[C@@H](CO)[C@H](O)[C@H]1O [STREPTOMYCIN] |  |  | 8 µg/mL (≈ 13.8 µM) | 16 µg/mL (≈ 27.5 µM) | 32 µg/mL (≈ 55 µM) | 0.5 µg/mL (≈ 0.86 µM) | 8 µg/mL (≈ 13.8 µM) | >64 µg/mL | 
7 | Cc1c(CN2CCN(C)CC2)cc(-c2ccc(Cl)cc2)n1-c1ccc(Cl)cc1 |  |  | 0.4 µg/mL (≈ 0.965 µM) |  | 100 µg/mL (≈ 241 µM) | 0.7 µg/mL (≈ 1.69 µM) | 25 µg/mL (≈ 60.3 µM) | 4 µg/mL | > 100 µg/mL
8 | Cc1c(CN2CCSCC2)cc(-c2ccccc2)n1-c1ccc(Cl)cc1 | inactive | inactive | 16 µg/mL (≈ 41.8 µM) | > 16 µg/mL | 8 µg/mL (≈ 20.9 µM) | 2 µg/mL (≈ 5.22 µM) | 16 µg/mL (≈ 41.8 µM) | 8 µg/mL | 
9 | CO[C@H]1/C=C/O[C@@]2(C)Oc3c(C)c(O)c4c(O)c(c(/C=N/N5CCN(C)CC5)c(O)c4c3C2=O)NC(=O)/C(C)=C\C=C\[C@H](C)[C@H](O)[C@@H](C)[C@@H](O)[C@@H](C)[C@H](OC(C)=O)[C@@H]1C [RIFAMPIN] |  |  | 0.3 µg/mL (≈ 0.365 µM) | 0.6 µg/mL (≈ 0.729 µM) | 0.6 µg/mL (≈ 0.729 µM) | 0.3 µg/mL (≈ 0.365 µM) | 32 µg/mL (≈ 38.9 µM) | 64 µg/mL | 
